According to publication PMC7367283, “A PIP2 substitute mediates voltage sensor-pore coupling in KCNQ activation” (Communications Biology, 2020):
“And” between values parts separate entries of the source, which are not always exact repeats. Equal entries are not always repeated.

Assays:
Test in all cases: Two-electrode voltage clamp of mutant KCNQ1 in Xenopus oocytes
Type in all cases: cell-based
[1] = biological target: KCNQ1 R243A/R249A (Homo sapiens, UniProt P51787, R243A/R249A); details: 10 µM CP1, individual oocytes
Source text: (§1) In a previous study, mutation of residues in the predicted PIP2-binding site reduced KCNQ1 currents. CP1 modifies voltage-dependent activation of KCNQ1 channels by shifting the voltage dependence of channel opening, measured as the voltage dependence of the conductance (G–V) relationship, to more negative voltages (Fig. 1c) among other characteristics (see below). We made mutations to the residues around the CP1-interacting pocket as indicated by molecular docking (Fig. 1b), and examined the effects of the mutations on the CP1-induced shift of the G–V relationship. The mutations of the KCNQ1 residues that interact with CP1 in docking simulations reduced the shift of the G–V relationship (Fig. 1c, d), supporting the interaction of these residues with CP1.
(§2) Complementary DNA (cDNA) encoding human KCNQ1 (UniProtKB/Swiss‐Prot under accession no. P51787), KCNQ2 (O43526), KCNQ3 (O43525), KCNE1 (P15382), Kir1.1 (P48048), hERG (Q12809), KV4.2 (Q63881), NaV1.5 (Q14524), NaV β1 (Q07699), CaV1.2 (Q13936), CaV β1a (Q02641), CaV α2/δ1 (P54289), and HCN4 (Q9Y3Q4) were subcloned into oocyte expression vectors, respectively. Site-directed mutations of the KCNQ1 channel were all produced by overlap extension polymerase chain reaction (PCR) with high-fidelity Pfu polymerase (Stratagene, CA). The presence of the desired mutation was verified by sequencing the PCR-amplified regions. All the primer sequences used in this study are available in Supplementary Table 1. The complementary RNA (cRNA) of all these channels and mutations was transcribed in vitro with the T3, T7, or SP6 polymerase mMessage mMachine kit (Invitrogen, Thermo Fisher Scientific, MO).
(§3) The use of Xenopus laevis to obtain oocytes was approved by the Washington University Animal Studies Committee (protocol #20190030). Oocytes were manually dispersed and digested with collagenase (0.5 mg/ml, Sigma-Aldrich, Saint Louis, MO) to remove the follicle cell layer. Stage V or VI oocytes were selected and injected with cRNAs (9.2 ng) of channel or mutations. Especially, to characterize IKs, a mix of cRNAs at a molar ratio 4:1 (KCNQ1:KCNE1) was injected. For KCNQ2/KCNQ3, the molar ratio was 1:1 (KCNQ2:KCNQ3). For sodium channels, a 3:1 molar ratio (β1:NaV1.5) and for calcium channels a weight ratio 1:1:1 (β1:α2/δ1:CaV1.2) was injected, respectively. Injected oocytes were incubated in ND96 solution containing (in mM) 96 NaCl, 2 KCl, 1.8 CaCl2, 1 MgCl2, and 5 HEPES, pH 7.6, supplemented with 2.5 mM Na pyruvate and 1% penicillin–streptomycin, at 18 °C for 3–7 days before recording.
(§4) The whole-oocyte ionic currents were recorded with a GeneClamp 500B amplifier (Axon Instruments, CA) or iTEV90 amplifier (HEKA, Germany) and then sampled at 1 kHz and low-pass-filtered at 2 kHz. The Patchmaster software (HEKA, Germany) was used to acquire data. The Kir1.1 current was recorded with a high K^+ bath solution containing (in mM) 96 KCl, 4 NaCl, 1 CaCl2, 2 MgCl2, and 10 HEPES, pH 7.3–7.4. The HCN4 current was recorded in ND66 solution containing (in mM) 66 NaCl, 32 KCl, 1.8 CaCl2, 1 MgCl2, and 5 HEPES, pH 7.6. All the other potassium channels were recorded in ND96 solution. The currents of CaV1.2 channel were recorded in 40 mM Ba^2+ bath solution containing (in mM) 40 Ba(OH)2, 50 TEA-OH, 2 KOH, and 5 HEPES, adjusted to pH 7.4 with methanesulfonic acid. CP1 (DISODIUM 5-BROMO-2-[9-CHLORO-3-(SULFONATOOXY) NAPHTHO [1,2-B] THIEN-2-YL]-1H-INDOL-3-YL SULFATE, Sigma-Aldrich, MO) and Chromanol 293B (Sigma-Aldrich, MO) were dissolved in bath solutions. All the chemicals were purchased from Sigma-Aldrich. To measure the I–V relations of the Kir1.1 channel, the test voltage was set from −100 to +60 mV for 1 s with 20-mV increments. The test pulses were stepped from a holding potential of 0 mV and then stepped back to 0 mV. The HCN4 currents were recorded by a test pulse between −30 and −140 mV in 10-mV step from a holding potential of −30 mV. […]

[2] = biological target: KCNQ1 K354A/K358A (Homo sapiens, UniProt P51787, K354A/K358A)
Source text: as §1, §2, §3, §4

[3] = biological target: KCNQ1 R249A/S253A/K354A/K358A (Homo sapiens, UniProt P51787, K354A/K358A/R249A/S253A)
Source text: as §1, §2, §3, §4

[4] = biological target: KCNQ1 R259A (Homo sapiens, UniProt P51787, R259A); details: 10 µM CP1, individual oocytes
Source text: as §1, §2, §3, §4

[5] = biological target: KCNQ1 R249A/S253A (Homo sapiens, UniProt P51787, R249A/S253A); details: 10 µM CP1, individual oocytes
Source text: as §1, §2, §3, §4

G/Gmax ([2]; 10 µM CP1, 0 mV): 0.9071
G/Gmax ([2]; 10 µM CP1, 10 mV): 0.9519
G/Gmax ([2]; 10 µM CP1, 20 mV): 0.9897
G/Gmax ([2]; 10 µM CP1, 30 mV): 1.0000
G/Gmax ([2]; 10 µM CP1, -10 mV): 0.8497
G/Gmax ([2]; 10 µM CP1, -20 mV): 0.7541
G/Gmax ([2]; 10 µM CP1, -30 mV): 0.6165
G/Gmax ([2]; 10 µM CP1, -40 mV): 0.4576
G/Gmax ([2]; 10 µM CP1, -50 mV): 0.3124
G/Gmax ([2]; 10 µM CP1, -60 mV): 0.2094
G/Gmax ([2]; 10 µM CP1, -70 mV): 0.1390
G/Gmax ([2]; 10 µM CP1, -80 mV): 0.0950
G/Gmax ([2]; 10 µM CP1, -90 mV): 0.0670
G/Gmax ([2]; 10 µM CP1, -100 mV): 0.0415
G/Gmax ([2]; 10 µM CP1, -110 mV): 0.0111
G/Gmax ([2]; 10 µM CP1, -120 mV): 0.0033
G/Gmax ([3]; 10 µM CP1, 0 mV): 0.6125
G/Gmax ([3]; 10 µM CP1, 10 mV): 0.7412
G/Gmax ([3]; 10 µM CP1, 20 mV): 0.8671
G/Gmax ([3]; 10 µM CP1, 30 mV): 0.9470
G/Gmax ([3]; 10 µM CP1, 40 mV): 1.0000
G/Gmax ([3]; 10 µM CP1, -10 mV): 0.4658
G/Gmax ([3]; 10 µM CP1, -20 mV): 0.3584
G/Gmax ([3]; 10 µM CP1, -30 mV): 0.2410
G/Gmax ([3]; 10 µM CP1, -40 mV): 0.1854
G/Gmax ([3]; 10 µM CP1, -50 mV): 0.1254
G/Gmax ([3]; 10 µM CP1, -60 mV): 0.1039
G/Gmax ([3]; 10 µM CP1, -70 mV): 0.0777
G/Gmax ([3]; 10 µM CP1, -80 mV): 0.0665
G/Gmax ([3]; 10 µM CP1, -90 mV): 0.0440
G/Gmax ([3]; 10 µM CP1, -100 mV): 0.0354
G/Gmax ([3]; 10 µM CP1, -110 mV): 0.0175
G/Gmax ([3]; 10 µM CP1, -120 mV): 0.0015
∆V1/2 [5]: 49.1729 mV and 54.4047 mV and 38.3473 mV
Structure (SMILES): O=S(=O)([O-])Oc1c(-c2sc3c(ccc4cccc(Cl)c43)c2OS(=O)(=O)[O-])[nH]c2ccc(Br)cc12.[Na+].[Na+] [CP1, DISODIUM 5-BROMO-2-[9-CHLORO-3-(SULFONATOOXY) NAPHTHO [1,2-B] THIEN-2-YL]-1H-INDOL-3-YL SULFATE]
∆V1/2 [1]: 58.531 mV and 59.5008 mV and 36.2737 mV and 44.7577 mV
∆V1/2 ([2]; 10 µM CP1, individual oocytes): 24.6605 mV and 42.476 mV and 38.8398 mV and 35.894 mV
∆V1/2 ([3]; 10 µM CP1, individual oocytes): 21.6716 mV and 20.4143 mV and 21.6154 mV and 29.7699 mV
∆V1/2 [4]: 40.9982 mV and 50.0211 mV and 57.3239 mV and 73.9485 mV
